Measurements published in ChEMBL document CHEMBL4342418, “1,2,3-Triazole-containing hybrids as potential anticancer agents: Current developments, action mechanisms and structure-activity relationships” (Eur J Med Chem, 2019).
Values belong to the compound of their own block, whether it stands above or below them.

Experiments:
[1] = test system: IMR-32; experiment: Antiproliferative activity against human IMR32 cells assessed as reduction in cell viability after 72 hrs by MTT assay; assay type: functional, cell-based; conditions: IMR-32, 72 h
[2] = test system: MDA-MB-231; experiment: Antiproliferative activity against human MDA-MB-231 cells assessed as reduction in cell viability after 72 hrs by MTT assay; assay type: functional, cell-based; conditions: MDA-MB-231, 72 h, read-out: IC50
[3] = test system: U-87 MG; experiment: Antiproliferative activity against human U87 cells assessed as reduction in cell viability after 72 hrs by MTT assay; assay type: functional, cell-based, U-87MG ATCC
[4] = test system: MCF7; experiment: Antiproliferative activity against human MCF7 cells assessed as reduction in cell viability after 48 hrs by SRB assay; assay type: functional, cell-based; conditions: MCF7, 48 h
[5] = test system: A549; experiment: Antiproliferative activity against human A549 cells assessed as reduction in cell viability after 48 hrs by SRB assay; assay type: functional, cell-based; conditions: A549, 48 h
[6] = test system: HCT-116; experiment: Antiproliferative activity against human HCT116 cells assessed as reduction in cell viability after 48 hrs by SRB assay; assay type: functional, cell-based; conditions: HCT-116, 48 h
[7] = test system: HT-29; experiment: Antiproliferative activity against human HT-29 cells assessed as reduction in cell viability after 48 hrs by SRB assay; assay type: functional, cell-based; conditions: HT-29, 48 h
[8] = test system: MCF7; experiment: Antiproliferative activity against human MCF7 cells assessed as reduction in cell viability after 72 hrs by MTT assay; assay type: functional, cell-based; conditions: MCF7, 72 h
[9] = test system: MOLT-4; experiment: Antiproliferative activity against human MOLT4 cells assessed as reduction in cell viability after 72 hrs by MTT assay; assay type: functional, cell-based; conditions: MOLT-4, 72 h
[10] = test system: HT-29; experiment: Antiproliferative activity against human HT-29 cells assessed as reduction in cell viability after 72 hrs by MTT assay; assay type: functional, cell-based; conditions: HT-29, 72 h
[11] = test system: HT-29; experiment: Antiproliferative activity against human HT-29 cells assessed as reduction in cell viability after 48 hrs by MTT assay; assay type: functional, cell-based; conditions: HT-29, 48 h
[12] = test system: A549; experiment: Antiproliferative activity against human A549 cells assessed as reduction in cell viability after 48 hrs by MTT assay; assay type: functional, cell-based; conditions: A549, 48 h
[13] = test system: HCT-116; experiment: Antiproliferative activity against human HCT116 cells assessed as reduction in cell viability after 48 hrs by MTT assay; assay type: functional, cell-based; conditions: HCT-116, 48 h
[14] = test system: HBL-100; experiment: Antiproliferative activity against human HBL100 cells assessed as reduction in cell viability after 48 hrs by MTT assay; assay type: functional, cell-based; conditions: HBL-100, 48 h
[15] = test system: A549; experiment: cells; assay type: functional, cell-based; conditions: Homo sapiens
Description: Antiproliferative activity against human A549 cells by MTT assay

[16] = test system: HT-29; experiment: Antiproliferative activity against human HT-29 cells by MTT assay; assay type: functional, cell-based
[17] = test system: MV4-11; experiment: Antiproliferative activity against human MV4-11 cells by MTT assay; assay type: functional, cell-based
[18] = test system: MCF7; experiment: cells; assay type: functional, cell-based; conditions: Homo sapiens
Description: Antiproliferative activity against human MCF7 cells by MTT assay

[19] = test system: DU-145; experiment: Antiproliferative activity against human DU145 cells by MTT assay; assay type: functional, cell-based
[20] = test system: MCF-10A; experiment: Cytotoxicity against human MCF10A cells by MTT assay; assay type: cell-based
[21] = test system: PC-3; experiment: cells; assay type: functional, cell-based; conditions: Homo sapiens, PC-3, 48 h
Description: Antiproliferative activity against human PC3 cells assessed as reduction in cell viability after 48 hrs by MTT assay

[22] = test system: HGC-27; experiment: Antiproliferative activity against human HGC27 cells assessed as reduction in cell viability after 48 hrs by MTT assay; assay type: functional, cell-based; conditions: HGC-27, 48 h
[23] = test system: K562; experiment: Antiproliferative activity against human K562 cells assessed as reduction in cell viability after 72 hrs by MTT assay; assay type: functional, cell-based; conditions: K562, 72 h
[24] = test system: Caco-2; experiment: Antiproliferative activity against human Caco2 cells assessed as reduction in cell viability after 72 hrs by MTT assay; assay type: functional, cell-based; conditions: Caco-2, 72 h
[25] = test system: HeLa; experiment: Antiproliferative activity against human HeLa cells assessed as reduction in cell viability after 72 hrs by MTT assay; assay type: functional, cell-based
[26] = Cytotoxicity against dog MDCK1 cells assessed as reduction in cell viability after 72 hrs by MTT assay; assay type: cell-based; conditions: Canis lupus familiaris, MDCK1, 72 h
[27] = test system: MDA-MB-231; experiment: Antiproliferative activity against human MDA-MB-231 cells by MTT assay; assay type: functional, cell-based
[28] = test system: HEK293; experiment: Cytotoxicity against HEK293 cells by MTT assay; assay type: cell-based; conditions: Homo sapiens
[29] = test system: SW480; experiment: Antiproliferative activity against human SW480 cells assessed as reduction in cell viability after 48 hrs by MTT assay; assay type: functional, cell-based; conditions: SW480, 48 h
[30] = Antiproliferative activity against human SMCC7721 cells assessed as reduction in cell viability after 48 hrs by MTT assay; assay type: functional, cell-based
[31] = test system: HL-60; experiment: Antiproliferative activity against human HL60 cells assessed as reduction in cell viability after 48 hrs by MTT assay; assay type: functional, cell-based; conditions: HL-60, 48 h

SMILES: Cc1n[nH]c(=O)c2c1c1cc(F)ccc1n2Cc1cn(C2CCCCC2)nn1
IC50 [1]: 0.042 to 0.478 µM | IC50 [2]: 0.042 to 0.478 µM | IC50 [3]: 0.042 to 0.478 µM

SMILES: Cc1ccc(-c2nn(-c3ccccc3)cc2/C=C/C(=O)OCc2cn(-c3ccc([N+](=O)[O-])cc3)nn2)cc1
IC50 [4]: 1.76 to 9.46 µM | IC50 [5]: 1.76 to 9.46 µM | IC50 [6]: 1.76 to 9.46 µM | IC50 [7]: 1.76 to 9.46 µM

SMILES: COc1cc(-n2cc(CO[C@H]3CC[C@@]4(C)C(=CC[C@H]5[C@@H]6C[C@@H]7O[C@]8(CC[C@@H](C)CO8)[C@@H](C)[C@@H]7[C@@]6(C)CC[C@@H]54)C3)nn2)cc(OC)c1OC
IC50 [11]: 5.16 to 9.44 µM | IC50 [12]: 5.16 to 9.44 µM | IC50 [13]: 5.16 to 9.44 µM | IC50 [14]: 5.16 to 9.44 µM

SMILES: C=CCC1CN2CCC1CC2[C@@H](c1ccnc2ccc(OC)cc12)n1cc(-c2ccc3ccccc3n2)nn1 (stereo not given in full)
IC50 [15]: 0.53 to 14.6 µM | IC50 [16]: 0.53 to 14.6 µM | IC50 [17]: 0.53 to 14.6 µM | IC50 [18]: 0.53 to 14.6 µM | IC50 [19]: 0.53 to 14.6 µM | IC50 [20]: 0.53 to 14.6 µM

SMILES: COc1cc(-c2nc(Cn3cc(CN4C(=O)c5ccc(C)cc5C4=O)nn3)cc3c2[nH]c2ccccc23)cc(OC)c1OC
IC50 [8]: 3.67 to 26.5 µM | IC50 [11]: 3.67 to 26.5 µM | IC50 [21]: 3.67 to 26.5 µM | IC50 [22]: 3.67 to 26.5 µM

SMILES: Cc1n[nH]c(=O)c2c1c1cc(F)ccc1n2Cc1cn(Cc2ccc(F)cc2)nn1
IC50 [1]: 0.042 to 0.478 µM | IC50 [2]: 0.042 to 0.478 µM | IC50 [3]: 0.042 to 0.478 µM

SMILES: C=CCC1CN2CCC1CC2[C@H](O)c1cc(-c2cn(-c3ccccc3)nn2)nc2ccc(OC)cc12 (stereo not given in full)
IC50 [15]: 0.53 to 6.4 µM | IC50 [16]: 0.53 to 6.4 µM | IC50 [17]: 0.53 to 6.4 µM | IC50 [18]: 0.53 to 6.4 µM | IC50 [19]: 0.53 to 6.4 µM | IC50 [20]: 0.53 to 6.4 µM

SMILES: COc1ccc(-c2nc(Cn3cc(CN4C(=O)c5cccc6cccc(c56)C4=O)nn3)cc3c2[nH]c2ccccc23)cc1OC
IC50 [8]: 3.67 to 26.5 µM | IC50 [11]: 3.67 to 26.5 µM | IC50 [21]: 3.67 to 26.5 µM | IC50 [22]: 3.67 to 26.5 µM

SMILES: Cc1ccc(-n2nc(N)c(C(=O)NCCNC(=O)c3nn(-c4ccc(C)cc4)nc3N)n2)cc1
IC50 [27]: 7 µM | IC50 [28]: > 50 µM

SMILES: COc1cc([C@@H]2c3cc4c(cc3[C@H](n3cc(COCC(COCc5cn([C@H]6c7cc8c(cc7[C@@H](c7cc(OC)c(O)c(OC)c7)[C@H]7C(=O)OC[C@@H]76)OCO8)nn5)O[C@@H]5O[C@H](COC(C)=O)[C@@H](OC(C)=O)[C@H](OC(C)=O)[C@H]5OC(C)=O)nn3)[C@H]3COC(=O)[C@H]23)OCO4)cc(OC)c1O (stereo not given in full)
IC50 [29]: 0.43 to 30.5 µM | IC50 [30]: 0.43 to 30.5 µM | IC50 [12]: 0.43 to 30.5 µM | IC50 [31]: 0.43 to 30.5 µM

Continued, in another order:

IC50 [8]: 6.8 to 10.4 µM | IC50 [9]: 6.8 to 10.4 µM | IC50 [10]: 6.8 to 10.4 µM
SMILES: O=C1C=C(NCc2cn(Cc3ccc(C(F)(F)F)cc3)nn2)C(=O)c2ccccc21

IC50 [23]: 9.7 to 81.9 µM | IC50 [24]: 9.7 to 81.9 µM | IC50 [25]: 9.7 to 81.9 µM
SMILES: COc1ccc(-c2cn(Cc3cc(=O)oc4cc(O)c(O)cc34)nn2)cc1
IC50 [26]: 36.7 to 46 µM

IC50 [23]: 9.7 to 81.9 µM | IC50 [24]: 9.7 to 81.9 µM | IC50 [25]: 9.7 to 81.9 µM
SMILES: COc1cccc(-c2cn(Cc3cc(=O)oc4cc(O)c(O)cc34)nn2)c1
IC50 [26]: 36.7 to 46 µM

IC50 [23]: 9.7 to 81.9 µM | IC50 [24]: 9.7 to 81.9 µM | IC50 [25]: 9.7 to 81.9 µM
SMILES: O=c1cc(Cn2cc(-c3ccccc3)nn2)c2cc(O)c(O)cc2o1
IC50 [26]: 36.7 to 46 µM
